# Test results from patent publication US20080176781A1, “Perfumes for linear citrus release in rinse-off systems” (priority 2007, published 2008).
# Assay: Odor detection threshold (ODT)
# Set-up: unit not given here
# Excerpt: Within these defined water-release groups, odorants are then further described based on their experimentally determined odor detection thresholds (ODT) to further characterize the odor impact or olfactive intensity of a citrus and other olfactive types within the herein-described released group of odorants.
# Upon their release in headspace, odorants are detected based on their odor detection threshold values. Odor detection thresholds are defined as the lowest concentration of odorants in a selected medium (air or water) to be detected. By including odor values of odorants in the model, one can further improve on the values for predicted performance of once odorants are released from the partition into the air.
# Various databases for experimental odor detection threshold values in various partitions such as water and air are available. See Compilation of Odor and Taste Threshold Values Data, American Society for Testing and Materials, F. A. Fazzalari Editor; Booleans Aroma Chemical Information Service (BACIS)).
SMILES,odt (Table 17),odt (Table 15),odt (Table 13)
C=CC(C)(O)CCC=C(C)CC (mixture of isomers) [ETHYL LINALOOL],120,,
"CCCCCCCCCC=O [ALDEHYDE C10 (DECANAL), DECANAL]",,6.7,
"CCCCCCCC=O [ALDEHYDE C 8 (OCTANAL), OCTANAL]",4.6,4.6,
C=CCOC(=O)CCC1CCCCC1 [ALLYL CYCLOHEXYL PROPIONATE],,,31.00
CC/C=C\CCOC(=O)c1ccccc1O [CIS-3-HEXENYL SALICYLATE],,,1.90
CCCCCCCCCCCC#N [LAURONITRILE],,,5.70
CCCCCCC#CC(=O)OC [METHYL OCTINE CARBONATE],9.7,,
CCCCCCCCCCC=CC#N [TRIDECEN 2 NITRILE],,6.7,
"CCC=C(C)C(O)CCCCC (centres unmarked) [UNDECAVERTOL, 4-Methyl-3-decen-5-ol]",26,26,
